The test system of data set [1] is SARS-CoV-2 (Strain USA_WA1/2020). Put plainly: microbe, parasite or virus in culture. Format: cell-based.
Data set [2] shares this test system. Description: microbe, parasite or virus in culture. Format: cell-based. To be noted: Severe acute respiratory syndrome coronavirus 2, Caco-2, 72 h.
Data set [3] deals with SARS-CoV-2 (isolate USA WA1/2020). Put plainly: microbe, parasite or virus in culture. Format: cell-based. As to conditions: for IC50: Severe acute respiratory syndrome coronavirus 2, Calu-3, read-out: IC50 (EC50), infection (dsRNA+ cells/total cell number).
Another data set deals with SARS-CoV-2-nLuc. Put plainly: microbe, parasite or virus in culture. Format: cell-based. As to conditions: Severe acute respiratory syndrome coronavirus 2, A549-ACE2.
The test system of data set [4] is murine hepatitis virus (MHV). Description: microbe, parasite or virus in culture. Format: cell-based. To be noted: Murine coronavirus.
The test system of a further data set is HCoV 229E. The class given is cell-based, human coronavirus 229E.
Data set [5] has as its target SARS-CoV-2 spike receptor binding domain (RBD) (Severe acute respiratory syndrome coronavirus 2, UniProt P0DTC2).
For data set [6], the system named is SARS-CoV-2. The class given is cell-based.
In another data set the test system is Vero 76 cells. To be noted: African green monkey.
Another data set addresses EBOV glycoprotein. To be noted: cited from earlier work.
Data set [7] deals with SARS-CoV-2. As to conditions: cited from earlier work.
A further data set has as its system SARS-CoV-2 pseudovirus. To be noted: mouse, in vivo; cited from earlier work.
A short description of data set [8]: in vitro. To be noted: African green monkey.
The nature of data set [9]: in vitro. To be noted: human.
For the next data set, the system named is rVSV-SARS-CoV-2 S. The class given is cell-based.
Another data set deals with Vero cells. To be noted: cited from earlier work.
For another data set, the system named is Calu-3 cells. To be noted: cited from earlier work.
The next data set has as its target spike RBD. To be noted: read-out: affinity for spike RBD; cited from earlier work.
Data set [10] has as its system SARS-CoV-2. Description: microbe, parasite or virus in culture. Format: cell-based.
Data set [11] deals with SARS-CoV-2. The class given is cell-based. To be noted: 10 μM; 24 h.
Data set [12] concerns SARS-CoV-2. Format: cell-based. The source holds these as a separate data set.
The next data set relates to lysosomal pH. As to conditions: read-out: IC50, lysosomotropic; cited from earlier work.
The test system of data set [13] is SARS-CoV-2. As to conditions: cited from earlier work. The source holds these as a separate data set.
[14] abbreviates: Severe acute respiratory syndrome coronavirus 2, Vero 76.

“Also recorded” adds a separate entry of the source. Like-named read-outs stand apart in the source and are kept apart here.

For `CCN(CC)CCCC(C)Nc1c2ccc(Cl)cc2nc2ccc(OC)cc12` (stereo not shown) [quinacrine], the EC50 (usually the concentration at which the effect is half-maximal) is more than 6.87 µM in data set [1], more than 7.33 µM in data set [1] (setting [14]) and 2.83 µM with SARS-CoV-2 [7]. Besides, in data set [1], the “activity against SARS-CoV-2 in Vero 76” value is on record as “no in vitro activity”. Further, the EC90 – broadly, the concentration at which the effect reaches the 90% level – in data set [2] came out at 10.5 µM. Also, in data set [3], the “activity against SARS-CoV-2 in Calu-3” value is given as “no in vitro activity”. For the same compound, the results for the IC50 (with SARS-CoV-2-nLuc; in data set [4]) were less than 0.2 µM and 2.3 µM, respectively. For the same compound, the “decrease of virus titer” value with HCoV 229E was 3.9 logTCID50/mL. Also, the “binding to spike RBD” value in data set [5] is listed as “did not demonstrate reproducible binding”. The “activity against SARS-CoV-2 in Vero E6” value with SARS-CoV-2 [6] is “no in vitro activity; also recorded: no inhibition”. Also, the CC50 in the data set with Vero 76 cells was 6.87 µM; in “in vitro [8]”, 7.33 µM; in “in vitro [9]”, 229 µM. Besides, the Kd on EBOV glycoprotein is 7.55 µM. For the same compound, in the data set with SARS-CoV-2 pseudovirus, the infected cells result is recorded as “significant decrease”.
For the compound `COc1ccc2nc3cc(Cl)ccc3c(Nc3cc(CN4CCCC4)c(O)c(CN4CCCC4)c3)c2n1` [pyronaridine, 4-[(7-chloro-2-methoxybenzo[b][1,5]naphthyridin-10-yl)amino]-2,6-bis(1-pyrrolidinylmethyl)phenol phosphate (1:4)], the EC50 is more than 3.85 µM in data set [1] and more than 3.52 µM in data set [1] (setting [14]). Also, the “activity against SARS-CoV-2 in Vero 76” value in [1] is listed as “no activity”. This compound also gave an EC90 in [2] of 5.49 µM. For the same compound, the “activity against SARS-CoV-2 in Calu-3” value in data set [3] was “no activity”. Also, the IC50 with SARS-CoV-2-nLuc came to 0.198 µM; in [4] it was 2.75 µM. Moreover, the “decrease of virus titer” value in the data set with HCoV 229E is 2.83 logTCID50/mL. Further, the “weaker affinity for spike RBD compared to ACE2” value in data set [5] is 20–40 times. Besides, the “activity in VSV-pseudotype neutralization assay” value in the data set with rVSV-SARS-CoV-2 S is recorded as “no measurable activity”. The compound further showed a neutralization in the data set with rVSV-SARS-CoV-2 S of less than 50%. In addition, the “activity against SARS-CoV-2 in Vero E6” value in the data set with SARS-CoV-2 [6] is given as “no activity; also recorded: no inhibition”. Besides, the CC50 in the data set with Vero 76 cells is 3.85 µM; in the data set “in vitro [8]”, 3.52 µM; in the data set “in vitro [9]”, 51.6 µM; in the data set on Vero cells it was 37.1 µM; in the data set with Calu-3 cells, 43.1 µM. Besides, the Kd at EBOV glycoprotein was 7.34 µM.
With ACE2, the Kd at spike RBD is approximately 0.015 µM.
In the case of `CCC(CC)COC(=O)[C@H](C)N[P@](=O)(OC[C@H]1O[C@@](C#N)(c2ccc3c(N)ncnn23)[C@H](O)[C@@H]1O)Oc1ccccc1` [remdesivir], in data set [3], the IC50 came to 0.016 µM. In the data set with SARS-CoV-2 [10] (Severe acute respiratory syndrome coronavirus 2, Calu-3, read-out: inhibition PFU/mL), the inhibition at 0.6 µM is approximately 100%. The “inhibition of SARS-CoV-2, cell-associated viral RNA levels” value with SARS-CoV-2 [11] is recorded as approximately 50%.
As to `CCN(CC)CCOc1ccc2c(c1)C(=O)c1cc(OCCN(CC)CC)ccc1-2` [tilorone], the EC50 in [1] (setting [14]) came to 6.62 µM. Moreover, the EC90 in [2] amounted to 29 µM. Besides, the IC50 was 10.8 µM in data set [3]; approximately 9 µM in the data set with SARS-CoV-2 [10] (Severe acute respiratory syndrome coronavirus 2, Calu-3, 48 h); 0.18 µM in the data set on SARS-CoV-2-nLuc; approximately 20 µM in data set [4]; approximately 4 µM in the data set on lysosomal pH; 4 µM in the data set on SARS-CoV-2 [13]. Also, in the data set with SARS-CoV-2 [12], the antiviral activity result is reported as “did not show antiviral activity”. In addition, the “inhibition of HCoV-229E” value in the data set on HCoV 229E was “did not show significant inhibition”. Also, in data set [5], the “weaker affinity for spike RBD compared to ACE2” value was 20–40 times. Besides, the “activity in VSV-pseudotype neutralization assay” value with rVSV-SARS-CoV-2 S is “no measurable activity”. In addition, the neutralization in the data set with rVSV-SARS-CoV-2 S is less than 50%. Moreover, the “activity against SARS-CoV-2 in Vero E6” value in the data set on SARS-CoV-2 [6] is listed as “no inhibition”. The Kd on EBOV glycoprotein was 0.73 µM. Besides, the CC50 in “in vitro [8]” worked out at 49.6 µM; in the data set “in vitro [9]” it was 111 µM.

The record behind these values is paper PMC7992063 (ACS Omega, 2021).
